26 compounds from patent publication US8084467B2, “Pyrazole derivatives as cannabinoid receptor antagonists” (University of Connecticut, priority 2004, dated 2011) can be followed below.

The term Ki denotes a measure of affinity in units of concentration, obtained from inhibition or displacement.

SMILES strings stand for the structures. Where “and” joins values, the source holds several entries; their conditions need not be identical. Equal values may be shown once. Read-outs that look alike come from different tables or passages of the source.

One assay concerns the target T1, CB1 cannabinoid receptor (Rattus norvegicus, UniProt P20272).
T1 construct: membranes were prepared from rat forebrain membranes; from tissue; host or cells: rat forebrain
Nature of the assay: CB1 receptor binding, rat forebrain membranes, [3H] CP-55,940 displacement. The following applies: for Ki: 0.8 nM [3H] CP-55,940. The procedure:
Some of the inventive analogs were tested for CB2 receptor binding affinity and for CB1 receptor affinity (to determine selectivity). […] The lower the Ki value the higher the binding affinity. […]
Membranes, previously frozen at −80° C., were thawed on ice. To the stirred suspension was added three volumes of TME (25 mM Tris-HCl buffer, 5 mM MgCl2 and 1 mM EDTA) at a pH 7.4. The suspension was incubated at 4° C. for 30 min. At the end of the incubation, the membranes were pelleted and washed three times with TME.
(§1) The treated membranes were subsequently used in the binding assay described below. Approximately 30 μg of membranes were incubated in silanized 96-well microtiter plate with TME containing 0.1% essentially fatty acid-free bovine serum albumin (BSA), 0.8 nM [^3H] […] Radioactivity was detected using MicroScint 20 scintillation cocktail added directly to the dried filterplates, and the filterplates were counted using a Packard Instruments Top-Count. […] Data collected from three independent experiments performed with duplicate determinations was normalized between 100% and 0% specific binding for [^3H] […] The normalized data was analyzed using a 4-parameter nonlinear logistic equation to yield IC50 values.

A further assay deals with T2, CB2 receptor (Mus musculus, UniProt P47936).
T2 construct: membranes were prepared from frozen mouse spleen; from tissue; host or cells: mouse spleen
T2 sequence (P47936 whole entry): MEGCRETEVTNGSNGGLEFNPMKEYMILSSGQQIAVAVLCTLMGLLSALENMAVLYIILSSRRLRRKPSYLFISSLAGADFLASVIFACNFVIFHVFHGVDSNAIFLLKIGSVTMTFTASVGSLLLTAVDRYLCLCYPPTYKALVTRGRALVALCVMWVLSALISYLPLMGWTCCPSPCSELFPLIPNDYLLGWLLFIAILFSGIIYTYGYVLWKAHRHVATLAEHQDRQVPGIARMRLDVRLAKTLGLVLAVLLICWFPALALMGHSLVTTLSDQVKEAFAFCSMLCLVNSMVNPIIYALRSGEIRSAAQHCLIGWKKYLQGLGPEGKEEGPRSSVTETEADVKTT
Briefly: CB2 receptor binding, mouse spleen membranes, same manner as the CB1 binding assay. To be noted: for Ki: [3H] CP-55,940; for selectivity CB2: ratio of CB1 Ki to CB2 Ki. The procedure:
Some of the inventive analogs were tested for CB2 receptor binding affinity and for CB1 receptor affinity (to determine selectivity). […] The lower the Ki value the higher the binding affinity.
as §1
Silanized centrifuge tubes were used throughout to minimize receptor loss due to adsorption. The CB2 binding assay was conducted in the same manner as for the CB1 binding assay. The binding affinities (Ki) were also expressed in nanomoles (nM).

The subject of a further assay is rats. Briefly: Food-reinforced lever pressing in trained rats. The class given is in vivo, rat. The following applies: IP, various dosages, tested ten minutes after injection, FIG. 1, p<0.05. The procedure: 11 rats were trained to press a lever five times to receive a 45 mg food pellet. The training continued over a time period of several weeks. After the training period all rats received drug treatments once per week. The specific rat receiving a drug treatment and the dosage given were each randomly varied. The treatments comprised administration of a vehicle control solution or various dosages of inventive compound 1-5 in combination with the vehicle control solution. All injections were given IP. Ten minutes after injection the rat was placed in proximity to the lever.
FIG. 1 illustrates a mean (±SEM) number of lever presses in 30 min for treated animals. […] FIG. 1 illustrates a classic dose response curve wherein as the dose of drug (inventive compound 1-5) increases, lever pressing consistently decreases. Without wishing to be bound to any theory, applicants believe that inventive compound 1-5 antagonizes (blocks) the CB1 receptors, thereby suppressing appetite and leading to decreased lever pressing.

The mark [1] stands for this setting: rat forebrain membranes, read-out: affinities Ki CB1.
Where [2] appears, read: mouse spleen membranes, read-out: affinities Ki CB2.
Setting [3] is: affinities Ki CB1, rat forebrain membranes.
The mark [4] stands for this setting: affinities Ki CB2, mouse spleen membranes.

T1 sequence (P20272 whole entry): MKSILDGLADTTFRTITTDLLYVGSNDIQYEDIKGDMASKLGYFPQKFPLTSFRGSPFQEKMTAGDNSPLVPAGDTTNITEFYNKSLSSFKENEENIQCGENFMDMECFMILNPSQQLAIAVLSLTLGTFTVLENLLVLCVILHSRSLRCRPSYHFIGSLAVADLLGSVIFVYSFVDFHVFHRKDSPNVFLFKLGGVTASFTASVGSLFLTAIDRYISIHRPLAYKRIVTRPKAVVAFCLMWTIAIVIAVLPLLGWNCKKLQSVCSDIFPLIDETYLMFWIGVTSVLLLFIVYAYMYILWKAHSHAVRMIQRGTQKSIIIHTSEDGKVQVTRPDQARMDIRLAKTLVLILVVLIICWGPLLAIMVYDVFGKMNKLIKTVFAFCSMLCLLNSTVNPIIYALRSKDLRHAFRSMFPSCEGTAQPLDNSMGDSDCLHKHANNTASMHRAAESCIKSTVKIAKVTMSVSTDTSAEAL

As to `O=C(NN1CCCCC1)c1nn(-c2ccc(-c3cccnc3)cc2Cl)c(-c2ccc(-c3cccnc3)cc2)c1CO` [Compound 3-20], the Ki at CB1 cannabinoid receptor (setting [1]) stood at 154 nM; on CB2 receptor (setting [2]), 1680 nM. Moreover, the “selectivity CB1” value on CB1 cannabinoid receptor (ratio of CB2 Ki to CB1 Ki) was 10.9.
With `Cc1c(CCC2CCCCC2)nn(-c2ccc(Cl)cc2Cl)c1-c1ccc(Br)cc1` [Compound 1-27], the Ki at CB1 cannabinoid receptor (setting [1]) was determined as 1040 nM; at CB2 receptor (setting [2]), 26400 nM. Also, the “selectivity CB1” value on CB1 cannabinoid receptor (ratio of CB2 Ki to CB1 Ki) stood at 25.3.
On the same counts, the results for `Cc1c(C(=O)NN2CCCCC2)nn(-c2ccc(Cl)cc2Cl)c1-c1ccc(-c2nnnn2C)cc1` [Compound 2-2] are 90 nM, 242 nM and 2.7.
On the same counts, the results for `Cn1nnnc1-c1ccc(-c2c(CO)c(C(=O)NC3CCCCC3)nn2-c2ccc(Cl)cc2Cl)cc1` [Compound 2-11] are 118 nM, 122 nM and 1.
For the compound `Cc1c(C(=O)Nc2ccc3ccccc3c2)nn(CCCCCCl)c1-c1ccccc1` [Compound 4-3], the Ki on CB1 cannabinoid receptor (setting [3]) was found to be 14.6 nM; at CB2 receptor (setting [4]), 15.4 nM.
For `Cc1c(C(=O)NC2CCCCC2)nn(-c2ccc(Cl)cc2Cl)c1-c1ccc(-c2nnnn2C)cc1` [Compound 2-8], the Ki at CB1 cannabinoid receptor (setting [1]) is 120 nM; at CB2 receptor (setting [2]), 1070 nM. The “selectivity CB1” value on CB1 cannabinoid receptor (ratio of CB2 Ki to CB1 Ki) is 8.9.
As to `Cc1c(C(=O)NC23CC4CC(CC(C4)C2)C3)nn(CCCCCI)c1-c1ccccc1` [Compound 4-10], the Ki at CB1 cannabinoid receptor (setting [3]) was 1.34 nM and 1.3 nM; on CB2 receptor (setting [4]), 1.01 nM and 1 nM. Further, the “selectivity CB2” value on CB2 receptor came to 1.3.
`COCc1c(C(=O)NC23CC4CC(CC(C4)C2)C3)nn(-c2ccc(Cl)cc2Cl)c1-c1ccc(Br)cc1` [Compound 1-7]: the “selectivity CB1” value on CB1 cannabinoid receptor is recorded as 32. Moreover, the Ki at CB1 cannabinoid receptor (setting [1]) is 53 nM; at CB2 receptor (setting [2]) it was 1680 nM.
As for `Cc1c(C(O)C(O)c2ccccc2)nn(-c2ccc(Cl)cc2Cl)c1-c1ccc(Br)cc1` (stereo not drawn) [Compound 1-28], the results for the Ki at CB1 cannabinoid receptor (setting [1]) and on CB2 receptor (setting [4]) were 1070 nM and 3930 nM, respectively. Also, the “selectivity CB1” value on CB1 cannabinoid receptor (ratio of CB2 Ki to CB1 Ki) is on record as 3.7.
As for `CN(C(=O)c1nn(-c2ccc(Cl)cc2Cl)c(-c2ccc(-c3ccncc3)cc2)c1CO)C1CCCCC1` [Compound 3-5], the Ki stood at 90 nM at CB1 cannabinoid receptor (setting [1]) and 294 nM on CB2 receptor (setting [2]). In addition, the “selectivity CB1” value on CB1 cannabinoid receptor (ratio of CB2 Ki to CB1 Ki) amounted to 3.3.
The like results for `Cc1c(C=Cc2ccccc2)nn(-c2ccc(Cl)cc2Cl)c1-c1ccc(Br)cc1` [Compound 1-23] were, in that order, 331 nM, 16400 nM and 49.6.
The like results for `Cc1c(C(=O)NN2CCCCC2)nn(-c2ccc(Cl)cc2Cl)c1-c1ccc(C#N)cc1` [Compound 3-23] were, in that order, 22 nM, 4690 nM and 213.3.
Take `COCc1c(C(=O)NC2CCCCC2)nn(-c2ccc(Cl)cc2Cl)c1-c1ccc(Br)cc1` [Compound 1-9]: the Ki on CB1 cannabinoid receptor (setting [1]) stood at 4 nM; on CB2 receptor (setting [2]), 495 nM. Moreover, the “selectivity CB1” value at CB1 cannabinoid receptor (ratio of CB2 Ki to CB1 Ki) stood at 124.
The like results for `Cc1c(C(=O)NN2CCCCC2)nn(-c2ccc(Cl)cc2Cl)c1-c1ccc(-c2ccc(Cl)cc2)cc1` [Compound 1-2] were, in that order, 5.8 nM, 1590 nM and 274.
As for `N#Cc1ccc(-c2c(CO)c(C(=O)NN3CCCCC3)nn2-c2ccc(Cl)cc2Cl)cc1` [Compound 3-22], the inhibitory constant (Ki) on CB1 cannabinoid receptor (setting [1]) amounted to 64 nM; at CB2 receptor (setting [2]), 2740 nM. Also, at CB1 cannabinoid receptor (ratio of CB2 Ki to CB1 Ki), the “selectivity CB1” value is 42.8.
With `CN(C(=O)c1nn(-c2ccc(Cl)cc2Cl)c(-c2ccc(-c3nnn[nH]3)cc2)c1CO)C1CCCCC1` [Compound 2-16], the values for the Ki on CB1 cannabinoid receptor (setting [1]) and on CB2 receptor (setting [2]) were 293 nM and 1120 nM, respectively. Moreover, the “selectivity CB1” value at CB1 cannabinoid receptor (ratio of CB2 Ki to CB1 Ki) turned out to be 3.8.
Take `Cc1c(C=Cc2ccccc2)nn(-c2ccc(Cl)cc2Cl)c1-c1ccc(Br)cc1` [Compound 1-24]: the Ki at CB1 cannabinoid receptor (setting [1]) turned out to be 141 nM; at CB2 receptor (setting [2]), 10600 nM. In addition, the “selectivity CB1” value on CB1 cannabinoid receptor (ratio of CB2 Ki to CB1 Ki) amounted to 75.0.
Consider `Cc1c(NC(=O)NC2CCCCC2)nn(-c2ccc(Cl)cc2Cl)c1-c1ccc(-c2cccnc2)cc1` [Compound 2-22], for which the Ki turned out to be 29 nM on CB1 cannabinoid receptor (setting [1]) and 10900 nM on CB2 receptor (setting [2]). For the same compound, the “selectivity CB1” value at CB1 cannabinoid receptor (ratio of CB2 Ki to CB1 Ki) was found to be 374.6.
`Cc1c(C(=O)NCC23CC4CC(CC(C4)C2)C3)nn(CCCCCCl)c1-c1ccccc1` [Compound 4-5]: the Ki on CB1 cannabinoid receptor (setting [3]) was 19.8 nM and 20 nM; at CB2 receptor (setting [4]), 6.65 nM and 6.6 nM. Also, the “selectivity CB2” value on CB2 receptor stood at 3.
Consider `Cc1c(C(=O)NC23CC4CC(CC(C4)C2)C3)nn(CCCCCN=[N+]=[N-])c1-c1ccccc1` [Compound 4-11], for which the Ki at CB1 cannabinoid receptor (setting [3]) was 3.96 nM and 4 nM; at CB2 receptor (setting [4]), 0.965 nM and 1 nM. In addition, the “selectivity CB2” value on CB2 receptor amounted to 4.
In the case of `Cc1c(NC(=O)N2CCCCC2)nn(-c2ccc(Cl)cc2Cl)c1-c1ccc(Br)cc1` [Compound 3-13], the Ki on CB1 cannabinoid receptor (setting [1]) was 47 nM; on CB2 receptor (setting [2]), 284 nM. Further, the “selectivity CB1” value at CB1 cannabinoid receptor (ratio of CB2 Ki to CB1 Ki) turned out to be 6.0.
The like results for `COCc1c(C(=O)NC2CCCCC2)nn(-c2ccc(Cl)cc2Cl)c1-c1ccc(-c2ccncc2)cc1` [Compound 1-19] were, in that order, 160 nM, 2980 nM and 18.6.
The like results for `Cn1nnc(-c2ccc(-c3c(CO)c(C(=O)NC4CCCCC4)nn3-c3ccc(Cl)cc3Cl)cc2)n1` [Compound 2-12] were, in that order, 37 nM, 36.5 nM and 1.
`Cc1c(C(=O)NN2CCCCC2)nn(-c2ccc(Cl)cc2Cl)c1-c1ccc(Br)cc1` [Compound 3-16]: the inhibition constant Ki was 17 nM on CB1 cannabinoid receptor (setting [1]) and 897 nM at CB2 receptor (setting [2]). Further, the “selectivity CB1” value at CB1 cannabinoid receptor (ratio of CB2 Ki to CB1 Ki) is on record as 52.8.
The like results for `Cc1c(NC(=O)NC2CCCCC2)nn(-c2ccc(Cl)cc2Cl)c1-c1ccc(I)cc1` [Compound 3-10] were, in that order, 26 nM, 21800 nM and 838.1.
Take `O=C(NN1CCCCC1)c1nn(-c2ccc(Cl)cc2Cl)c(-c2ccc(-c3cccnc3)cc2)c1CO` [Compound 1-5]: the Ki at CB1 cannabinoid receptor (setting [1]) stood at 5.8 nM; at CB2 receptor (setting [2]), 2310 nM. Moreover, the “selectivity CB1” value at CB1 cannabinoid receptor (ratio of CB2 Ki to CB1 Ki) is 398. For the same compound, the “suppression of food-reinforced lever pressing (number of lever presses in 30 min)” value in the assay with rats is “suppression of food-reinforced lever pressing was statistically significant”.
